Measured values reported in article PMC4581723, “Evaluation of In Vitro Activity of the Class I PI3K Inhibitor Buparlisib (BKM120) in Pediatric Bone and Soft Tissue Sarcomas” (PLoS ONE, 2015).
Read-outs that look alike come from different tables or passages of the source. One block for each compound: values may come before it.

Legend:
TC-174 = assay: Cell viability assay (MTT), 72 h; assay type: cell-based; details: TC-174 (ES), read-out: GDC-0941 cell viability IC50
A4573 = assay: Cell viability assay (MTT), 72 h; assay type: cell-based; details: A4573 (ES), read-out: GDC-0941 cell viability IC50
KHOS = assay: Cell viability assay (MTT), 72 h; assay type: cell-based; details: KHOS (OS), read-out: GDC-0941 cell viability IC50
HOS = assay: Cell viability assay (MTT), 72 h; assay type: cell-based; details: Homo sapiens, HOS (OS), read-out: GDC-0941 cell viability IC50
SJSA = assay: Cell viability assay (MTT), 72 h; assay type: cell-based; details: SJSA (OS), read-out: GDC-0941 cell viability IC50
RD = assay: Cell viability assay (MTT), 72 h; assay type: cell-based; details: Homo sapiens, RD (RMS), read-out: GDC-0941 cell viability IC50
A204 = assay: Cell viability assay (MTT), 72 h; assay type: cell-based; details: Homo sapiens, A204 (RMS), read-out: GDC-0941 cell viability IC50
osteosarcoma [1] = tested on: osteosarcoma; parameters: method as in PMID 24961790, PMID 24333720; details: cited from earlier work
osteosarcoma [2] = details: cited from earlier work
[3] = tested on: pediatric tumor cell lines; parameters: method as in PMID 23002019; details: panel of pediatric tumor cell lines, including sarcomas; read-out: median relative IC50; cited from earlier work
[4] = tested on: chronic lymphocytic leukemia; details: cited from earlier work
TC-32 = assay: Cell viability assay (MTT), 72 h; assay type: cell-based; details: TC-32 cells
[5] = tested on: bone and soft-tissue sarcomas; parameters: method as in PMID 23477833; details: combination with the mTOR inhibitor temsirolimus; phase II; patients with bone and soft-tissue sarcomas; cited from earlier work

IC50 (SJSA): 297 nM
Compound: CS(=O)(=O)N1CCN(Cc2cc3nc(-c4cccc5[nH]ncc45)nc(N4CCOCC4)c3s2)CC1 [GDC-0941, pictilisib]
IC50 (TC-174): 170 nM
IC50 (A4573): 376 nM
IC50 (KHOS): 1200 nM
IC50 (HOS): 161 nM
IC50 (RD): 278 nM
IC50 (A204): 27.1 nM

Compound: Cn1c(=O)n(-c2ccc(C(C)(C)C#N)cc2)c2c3cc(-c4cnc5ccccc5c4)ccc3ncc21 [NVP-BEZ235]
in vitro cellular proliferation (osteosarcoma [1]): inhibited
tumor growth in vivo (osteosarcoma [2]): inhibited

Compound: Cc1nc(NC(=O)N2CCC[C@H]2C(N)=O)sc1-c1ccnc(C(C)(C)C(F)(F)F)c1 [NVP-BYL719]
in vitro cellular proliferation (osteosarcoma [1]): inhibited
tumor growth in vivo (osteosarcoma [2]): inhibited
tumor growth (osteosarcoma [2]; combined with the chemotherapeutic agent ifosfamide): synergistically inhibited tumor growth

Compound: COc1ccc(Cl)c(Nc2nc3ccccc3nc2NS(=O)(=O)c2cccc(NC(=O)C(C)(C)N)c2)c1 [SAR245408]
IC50 [3]: 10900 nM

Compound: CC[C@H](Nc1ncnc2[nH]cnc12)c1nc2cccc(F)c2c(=O)n1-c1ccccc1 [idelalisib]
overall response rate ([4]; combined with rituximab): 81%
overall response rate ([4]; single agent): 72%

Compound: CC(=O)Nc1cccc(-n2c(=O)n(C3CC3)c(=O)c3c(Nc4ccc(I)cc4F)n(C)c(=O)c(C)c32)c1 [tramenitib, trametinib]
cytotoxicity as single agent (TC-32): no tramenitib cytotoxicity was observed

Compound: cixutmumuab: IGF1R antibody, evaluated in combination with the mTOR inhibitor temsirolimus
response rate [5]: 15%
